Results from PMC10177496, “An Isoxazoloquinone Derivative Inhibits Tumor Growth by Targeting STAT3 and Triggering Its Ubiquitin-Dependent Degradation” (Cancers, 2023).

Molecular target: STAT3 (Homo sapiens, UniProt P40763)
Experiment: biotin pull-down (MDA-MB-231), LC/MS identification and STAT3 Western blot
Assay type: cell-based
Source text: biotin pull-down (MDA-MB-231), LC/MS identification and STAT3 Western blot on STAT3 | identified the proteins that bind to biotin–ZSW specifically using LC/MS. We determined that STAT3 was specifically stripped

Sequence of STAT3 (P40763 2-770): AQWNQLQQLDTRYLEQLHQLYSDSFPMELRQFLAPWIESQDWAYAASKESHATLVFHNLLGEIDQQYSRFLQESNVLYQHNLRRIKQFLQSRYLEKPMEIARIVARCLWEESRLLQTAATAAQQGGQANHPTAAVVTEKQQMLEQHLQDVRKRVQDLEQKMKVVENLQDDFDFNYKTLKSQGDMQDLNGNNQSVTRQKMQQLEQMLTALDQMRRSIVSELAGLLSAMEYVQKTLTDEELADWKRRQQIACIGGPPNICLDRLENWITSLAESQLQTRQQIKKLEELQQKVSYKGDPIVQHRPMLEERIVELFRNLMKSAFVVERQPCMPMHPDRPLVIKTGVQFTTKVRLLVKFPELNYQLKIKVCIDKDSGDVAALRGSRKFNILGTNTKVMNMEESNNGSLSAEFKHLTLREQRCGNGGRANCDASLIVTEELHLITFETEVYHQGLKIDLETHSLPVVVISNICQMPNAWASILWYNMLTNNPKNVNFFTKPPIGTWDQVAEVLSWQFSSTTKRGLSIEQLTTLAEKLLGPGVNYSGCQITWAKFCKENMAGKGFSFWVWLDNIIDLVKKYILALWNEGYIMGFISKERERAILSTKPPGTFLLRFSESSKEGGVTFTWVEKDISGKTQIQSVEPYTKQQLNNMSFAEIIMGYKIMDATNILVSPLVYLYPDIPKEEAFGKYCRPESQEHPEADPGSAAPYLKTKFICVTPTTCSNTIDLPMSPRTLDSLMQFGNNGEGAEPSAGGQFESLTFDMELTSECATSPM

COc1cc(-c2noc3c2C(=O)c2cccnc2C3=O)cc(OC)c1OCCCOC(=O)CCCCC1SCC2NC(=O)NC21 (stereo not shown) [biotin–ZSW]
biotin pull-down (MDA-MB-231), LC/MS identification and STAT3 Western blot: identified the proteins that bind to biotin–ZSW specifically using LC/MS. We determined that STAT3 was specifically stripped
